pIC50: −log10 of the molar value.
Key:
[1] = biological target: T1, Serine/threonine-protein kinase Nek2 (Homo sapiens) (UniProt P51955); assay: Inhibition of human NEK2A (1 to 445 residues) assessed as enzyme activity at 1 uM using 33P ATP by radioactive filter binding assay; set-up: scale not given: the % may be the effect or the level left
T1 sequence (whole entry): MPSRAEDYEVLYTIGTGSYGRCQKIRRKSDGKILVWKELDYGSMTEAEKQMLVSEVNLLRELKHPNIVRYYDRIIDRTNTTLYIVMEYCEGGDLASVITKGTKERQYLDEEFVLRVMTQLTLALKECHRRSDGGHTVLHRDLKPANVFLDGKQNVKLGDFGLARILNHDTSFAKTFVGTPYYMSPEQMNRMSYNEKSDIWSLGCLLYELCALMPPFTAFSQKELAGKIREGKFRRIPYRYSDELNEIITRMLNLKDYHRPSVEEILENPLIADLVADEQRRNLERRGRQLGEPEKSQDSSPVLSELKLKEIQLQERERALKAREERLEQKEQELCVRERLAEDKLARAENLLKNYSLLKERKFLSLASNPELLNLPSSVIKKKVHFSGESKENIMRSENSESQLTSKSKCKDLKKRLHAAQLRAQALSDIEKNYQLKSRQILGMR

[2] = biological target: T2, Mitogen-activated protein kinase 13 (Homo sapiens) (UniProt O15264); assay: Inhibition of SAPK4 (unknown origin) assessed as enzyme activity at 1 uM using 33P ATP by radioactive filter binding assay; set-up: scale not given: the % may be the effect or the level left
T2 sequence (whole entry): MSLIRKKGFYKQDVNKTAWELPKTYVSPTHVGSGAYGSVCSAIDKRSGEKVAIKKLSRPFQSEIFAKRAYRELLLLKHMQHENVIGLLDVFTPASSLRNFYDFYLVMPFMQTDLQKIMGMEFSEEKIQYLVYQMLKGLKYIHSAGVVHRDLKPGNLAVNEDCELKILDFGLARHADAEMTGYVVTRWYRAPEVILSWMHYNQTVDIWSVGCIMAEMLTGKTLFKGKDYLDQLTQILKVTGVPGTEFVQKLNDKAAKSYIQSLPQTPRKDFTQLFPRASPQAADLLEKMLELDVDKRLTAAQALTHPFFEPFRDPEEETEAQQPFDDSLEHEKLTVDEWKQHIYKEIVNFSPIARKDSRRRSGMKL

[3] = biological target: Serine/threonine-protein kinase N2 (Homo sapiens) (UniProt Q16513); assay: Inhibition of human PRK2 (501 to 984 residues) assessed as enzyme activity at 1 uM using 33P ATP by radioactive filter binding assay; set-up: scale not given: the % may be the effect or the level left
[4] = biological target: Tyrosine-protein kinase Lck (Homo sapiens) (UniProt P06239); assay: Inhibition of human LCK (2 to 509 residues) assessed as enzyme activity at 1 uM using 33P ATP by radioactive filter binding assay; set-up: scale not given: the % may be the effect or the level left
Chain of Tyrosine-protein kinase Lck (Homo sapiens) (P06239 2-509 limits assumed): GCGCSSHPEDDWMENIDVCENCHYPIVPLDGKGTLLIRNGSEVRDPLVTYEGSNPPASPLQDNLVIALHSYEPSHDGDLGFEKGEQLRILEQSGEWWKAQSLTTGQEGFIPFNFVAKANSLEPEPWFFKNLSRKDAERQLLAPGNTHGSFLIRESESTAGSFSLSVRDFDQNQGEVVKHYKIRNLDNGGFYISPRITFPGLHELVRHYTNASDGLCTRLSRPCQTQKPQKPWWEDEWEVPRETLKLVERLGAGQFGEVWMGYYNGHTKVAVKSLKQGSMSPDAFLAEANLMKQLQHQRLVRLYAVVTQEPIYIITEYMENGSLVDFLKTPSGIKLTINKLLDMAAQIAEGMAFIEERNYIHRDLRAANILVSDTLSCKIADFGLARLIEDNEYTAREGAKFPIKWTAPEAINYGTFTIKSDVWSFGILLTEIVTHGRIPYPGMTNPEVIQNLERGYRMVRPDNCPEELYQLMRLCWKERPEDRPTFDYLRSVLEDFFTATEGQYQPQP

[5] = biological target: Serine/threonine-protein kinase PAK 5 (Homo sapiens) (UniProt Q9P286); assay: Inhibition of human PAK5 (2 to 719 residues) assessed as enzyme activity at 1 uM using 33P ATP by radioactive filter binding assay; set-up: scale not given: the % may be the effect or the level left
[6] = biological target: Calcium/calmodulin-dependent protein kinase type 1 (Homo sapiens) (UniProt Q14012); assay: Inhibition of human CAMK1 (2 to 369 residues) assessed as enzyme activity at 1 uM using 33P ATP by radioactive filter binding assay; set-up: scale not given: the % may be the effect or the level left
[7] = biological target: Vascular endothelial growth factor receptor (Homo sapiens) (UniProt P17948+P35916+P35968); assay: Inhibition of human VEGFR assessed as enzyme activity at 1 uM using 33P ATP by radioactive filter binding assay; assay type: protein assay; set-up: scale not given: the % may be the effect or the level left
Chain of Vascular endothelial growth factor receptor (Homo sapiens) (P17948 whole entry, looked up, the tested form may be a part): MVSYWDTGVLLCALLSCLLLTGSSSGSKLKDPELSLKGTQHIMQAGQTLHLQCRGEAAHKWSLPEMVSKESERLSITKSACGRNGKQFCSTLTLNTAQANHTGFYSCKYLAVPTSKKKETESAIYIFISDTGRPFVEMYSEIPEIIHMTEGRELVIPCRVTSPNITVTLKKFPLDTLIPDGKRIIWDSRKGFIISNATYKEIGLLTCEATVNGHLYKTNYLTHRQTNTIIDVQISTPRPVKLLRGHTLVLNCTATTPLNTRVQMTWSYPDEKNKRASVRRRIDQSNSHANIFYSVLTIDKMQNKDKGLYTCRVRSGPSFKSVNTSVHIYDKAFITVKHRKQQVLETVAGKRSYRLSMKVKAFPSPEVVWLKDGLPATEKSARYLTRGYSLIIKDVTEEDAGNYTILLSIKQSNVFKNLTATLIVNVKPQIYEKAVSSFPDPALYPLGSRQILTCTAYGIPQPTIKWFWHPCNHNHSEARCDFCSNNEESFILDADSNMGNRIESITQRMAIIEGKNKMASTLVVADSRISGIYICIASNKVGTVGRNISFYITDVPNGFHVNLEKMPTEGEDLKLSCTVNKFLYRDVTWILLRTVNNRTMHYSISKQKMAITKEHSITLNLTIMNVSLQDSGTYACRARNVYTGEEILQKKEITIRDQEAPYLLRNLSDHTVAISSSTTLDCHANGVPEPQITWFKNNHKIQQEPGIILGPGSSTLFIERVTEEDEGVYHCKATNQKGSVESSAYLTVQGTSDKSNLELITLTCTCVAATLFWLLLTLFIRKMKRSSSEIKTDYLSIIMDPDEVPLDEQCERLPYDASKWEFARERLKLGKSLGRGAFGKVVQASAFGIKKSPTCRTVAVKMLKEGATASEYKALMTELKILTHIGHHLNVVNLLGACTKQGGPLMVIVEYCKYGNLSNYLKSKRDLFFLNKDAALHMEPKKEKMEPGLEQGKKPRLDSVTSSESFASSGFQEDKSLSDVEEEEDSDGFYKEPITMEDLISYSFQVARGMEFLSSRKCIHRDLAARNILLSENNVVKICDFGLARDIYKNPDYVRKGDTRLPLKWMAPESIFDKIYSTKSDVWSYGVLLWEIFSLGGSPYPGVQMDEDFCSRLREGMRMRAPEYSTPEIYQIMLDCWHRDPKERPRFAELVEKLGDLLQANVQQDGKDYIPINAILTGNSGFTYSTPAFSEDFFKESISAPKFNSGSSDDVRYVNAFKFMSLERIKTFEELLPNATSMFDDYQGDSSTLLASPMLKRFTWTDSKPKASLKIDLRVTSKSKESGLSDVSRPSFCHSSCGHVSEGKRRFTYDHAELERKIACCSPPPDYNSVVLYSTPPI
Chain of Vascular endothelial growth factor receptor (Homo sapiens) (P35916 whole entry, looked up, the tested form may be a part): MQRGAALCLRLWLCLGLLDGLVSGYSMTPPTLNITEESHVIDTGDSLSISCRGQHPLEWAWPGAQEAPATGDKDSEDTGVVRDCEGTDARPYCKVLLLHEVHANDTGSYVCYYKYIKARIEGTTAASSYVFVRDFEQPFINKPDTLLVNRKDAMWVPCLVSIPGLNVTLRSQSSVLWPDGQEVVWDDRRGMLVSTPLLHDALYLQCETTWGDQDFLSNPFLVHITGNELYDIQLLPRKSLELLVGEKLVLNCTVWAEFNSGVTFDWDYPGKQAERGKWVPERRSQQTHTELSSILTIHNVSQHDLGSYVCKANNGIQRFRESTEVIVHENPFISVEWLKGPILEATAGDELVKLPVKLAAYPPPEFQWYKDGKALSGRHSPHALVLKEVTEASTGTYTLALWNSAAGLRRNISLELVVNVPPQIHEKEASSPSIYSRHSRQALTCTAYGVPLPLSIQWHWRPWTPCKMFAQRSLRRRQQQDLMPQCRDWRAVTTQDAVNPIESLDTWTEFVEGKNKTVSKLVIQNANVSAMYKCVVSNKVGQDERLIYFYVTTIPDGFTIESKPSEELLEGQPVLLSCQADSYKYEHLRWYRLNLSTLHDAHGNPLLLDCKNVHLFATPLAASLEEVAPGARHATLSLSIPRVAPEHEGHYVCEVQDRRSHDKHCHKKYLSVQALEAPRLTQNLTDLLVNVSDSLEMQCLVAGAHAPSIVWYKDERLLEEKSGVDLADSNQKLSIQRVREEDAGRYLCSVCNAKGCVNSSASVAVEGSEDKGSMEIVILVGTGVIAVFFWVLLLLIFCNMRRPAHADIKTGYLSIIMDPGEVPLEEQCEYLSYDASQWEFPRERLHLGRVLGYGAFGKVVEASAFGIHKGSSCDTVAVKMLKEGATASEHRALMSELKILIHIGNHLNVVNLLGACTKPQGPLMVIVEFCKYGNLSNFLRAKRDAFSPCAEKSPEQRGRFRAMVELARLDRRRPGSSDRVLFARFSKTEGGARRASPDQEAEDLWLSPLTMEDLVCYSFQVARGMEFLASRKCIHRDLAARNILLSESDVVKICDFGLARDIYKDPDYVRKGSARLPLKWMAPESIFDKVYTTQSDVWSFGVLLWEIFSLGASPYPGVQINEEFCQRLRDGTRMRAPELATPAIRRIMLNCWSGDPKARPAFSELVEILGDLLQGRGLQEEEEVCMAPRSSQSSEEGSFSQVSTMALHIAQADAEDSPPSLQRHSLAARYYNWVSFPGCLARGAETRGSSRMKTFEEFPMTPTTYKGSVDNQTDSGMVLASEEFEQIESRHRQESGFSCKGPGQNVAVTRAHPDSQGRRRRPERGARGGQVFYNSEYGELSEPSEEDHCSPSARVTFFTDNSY
Chain of Vascular endothelial growth factor receptor (Homo sapiens) (P35968 whole entry, looked up, the tested form may be a part): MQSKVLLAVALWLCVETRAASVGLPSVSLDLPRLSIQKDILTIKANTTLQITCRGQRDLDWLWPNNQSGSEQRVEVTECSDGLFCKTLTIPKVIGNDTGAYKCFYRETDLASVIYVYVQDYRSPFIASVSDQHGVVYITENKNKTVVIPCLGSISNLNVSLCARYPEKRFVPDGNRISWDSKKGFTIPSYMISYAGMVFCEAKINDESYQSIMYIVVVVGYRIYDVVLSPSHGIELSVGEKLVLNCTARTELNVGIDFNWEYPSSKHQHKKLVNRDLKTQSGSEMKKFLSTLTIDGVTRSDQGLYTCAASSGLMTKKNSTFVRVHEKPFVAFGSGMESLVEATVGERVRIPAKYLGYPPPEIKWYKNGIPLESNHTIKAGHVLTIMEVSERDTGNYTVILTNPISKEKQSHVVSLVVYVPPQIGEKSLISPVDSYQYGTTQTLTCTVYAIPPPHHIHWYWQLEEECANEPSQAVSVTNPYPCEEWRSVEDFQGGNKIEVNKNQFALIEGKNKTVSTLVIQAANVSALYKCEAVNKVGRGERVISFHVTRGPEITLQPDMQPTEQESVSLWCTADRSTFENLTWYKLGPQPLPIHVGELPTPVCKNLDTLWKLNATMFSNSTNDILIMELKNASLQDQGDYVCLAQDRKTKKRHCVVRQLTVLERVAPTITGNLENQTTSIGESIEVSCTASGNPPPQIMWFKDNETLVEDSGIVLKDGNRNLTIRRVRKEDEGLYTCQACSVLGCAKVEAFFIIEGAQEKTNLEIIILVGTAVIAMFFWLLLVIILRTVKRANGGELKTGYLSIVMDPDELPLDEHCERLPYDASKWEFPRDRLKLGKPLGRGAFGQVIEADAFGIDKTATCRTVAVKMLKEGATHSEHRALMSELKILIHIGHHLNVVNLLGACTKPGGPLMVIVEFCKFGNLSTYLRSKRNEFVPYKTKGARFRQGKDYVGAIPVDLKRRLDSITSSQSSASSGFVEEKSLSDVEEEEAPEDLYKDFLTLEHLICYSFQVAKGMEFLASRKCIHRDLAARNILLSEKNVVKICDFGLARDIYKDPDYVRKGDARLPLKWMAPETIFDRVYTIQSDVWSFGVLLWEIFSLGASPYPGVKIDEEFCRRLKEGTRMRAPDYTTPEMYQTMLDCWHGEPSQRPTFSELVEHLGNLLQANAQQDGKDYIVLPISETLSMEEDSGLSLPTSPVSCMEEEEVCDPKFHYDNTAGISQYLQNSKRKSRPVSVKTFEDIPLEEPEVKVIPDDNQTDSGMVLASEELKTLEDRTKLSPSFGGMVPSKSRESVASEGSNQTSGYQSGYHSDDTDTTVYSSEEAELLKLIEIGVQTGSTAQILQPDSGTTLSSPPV

[8] = biological target: Serine/threonine-protein kinase PAK 4 (Homo sapiens) (UniProt O96013); assay: Inhibition of human PAK4 (2 to 591 residues) assessed as enzyme activity at 1 uM using 33P ATP by radioactive filter binding assay; set-up: scale not given: the % may be the effect or the level left
[9] = biological target: Mitogen-activated protein kinase 3 (Homo sapiens) (UniProt P27361); assay: Inhibition of human MAPK3 (2 to 544 residues) assessed as enzyme activity at 1 uM using 33P ATP by radioactive filter binding assay; set-up: scale not given: the % may be the effect or the level left
[10] = biological target: Casein kinase I isoform delta (Homo sapiens) (UniProt P48730); assay: Inhibition of human CK1 delta (1 to 415 residues) assessed as enzyme activity at 1 uM using 33P ATP by radioactive filter binding assay; set-up: scale not given: the % may be the effect or the level left
Chain of Casein kinase I isoform delta (Homo sapiens) (P48730 whole entry, looked up, the tested form may be a part, canonical isoform): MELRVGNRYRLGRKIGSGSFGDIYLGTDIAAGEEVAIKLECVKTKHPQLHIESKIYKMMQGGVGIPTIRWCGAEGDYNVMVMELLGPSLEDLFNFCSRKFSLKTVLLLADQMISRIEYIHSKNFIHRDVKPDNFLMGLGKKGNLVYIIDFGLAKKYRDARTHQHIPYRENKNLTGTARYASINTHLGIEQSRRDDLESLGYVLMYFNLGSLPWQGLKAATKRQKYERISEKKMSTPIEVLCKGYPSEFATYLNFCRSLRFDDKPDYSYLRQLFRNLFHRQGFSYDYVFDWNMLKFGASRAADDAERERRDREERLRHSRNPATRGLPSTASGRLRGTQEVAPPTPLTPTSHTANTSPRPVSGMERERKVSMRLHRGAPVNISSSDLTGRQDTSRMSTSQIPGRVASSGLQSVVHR

[11] = biological target: AMP-activated protein kinase, AMPK (Homo sapiens) (UniProt P54646+O43741+P54619+Q9UGJ0+Q9Y478+Q13131+Q9UGI9); assay: Inhibition of human AMPK assessed as enzyme activity at 1 uM using 33P ATP by radioactive filter binding assay; assay type: protein-complex assay; set-up: scale not given: the % may be the effect or the level left
[12] = biological target: Dual specificity mitogen-activated protein kinase kinase 1 (Homo sapiens) (UniProt Q02750); assay: Inhibition of human MKK1 (2 to 393 residues) assessed as enzyme activity at 1 uM using 33P ATP by radioactive filter binding assay; set-up: scale not given: the % may be the effect or the level left
[13] = biological target: T3, Phosphatidylinositol 4,5-bisphosphate 3-kinase catalytic subunit delta isoform (Homo sapiens, UniProt O00329); assay: Inhibition of PI3K delta (unknown origin)
T3 sequence (O00329 whole entry): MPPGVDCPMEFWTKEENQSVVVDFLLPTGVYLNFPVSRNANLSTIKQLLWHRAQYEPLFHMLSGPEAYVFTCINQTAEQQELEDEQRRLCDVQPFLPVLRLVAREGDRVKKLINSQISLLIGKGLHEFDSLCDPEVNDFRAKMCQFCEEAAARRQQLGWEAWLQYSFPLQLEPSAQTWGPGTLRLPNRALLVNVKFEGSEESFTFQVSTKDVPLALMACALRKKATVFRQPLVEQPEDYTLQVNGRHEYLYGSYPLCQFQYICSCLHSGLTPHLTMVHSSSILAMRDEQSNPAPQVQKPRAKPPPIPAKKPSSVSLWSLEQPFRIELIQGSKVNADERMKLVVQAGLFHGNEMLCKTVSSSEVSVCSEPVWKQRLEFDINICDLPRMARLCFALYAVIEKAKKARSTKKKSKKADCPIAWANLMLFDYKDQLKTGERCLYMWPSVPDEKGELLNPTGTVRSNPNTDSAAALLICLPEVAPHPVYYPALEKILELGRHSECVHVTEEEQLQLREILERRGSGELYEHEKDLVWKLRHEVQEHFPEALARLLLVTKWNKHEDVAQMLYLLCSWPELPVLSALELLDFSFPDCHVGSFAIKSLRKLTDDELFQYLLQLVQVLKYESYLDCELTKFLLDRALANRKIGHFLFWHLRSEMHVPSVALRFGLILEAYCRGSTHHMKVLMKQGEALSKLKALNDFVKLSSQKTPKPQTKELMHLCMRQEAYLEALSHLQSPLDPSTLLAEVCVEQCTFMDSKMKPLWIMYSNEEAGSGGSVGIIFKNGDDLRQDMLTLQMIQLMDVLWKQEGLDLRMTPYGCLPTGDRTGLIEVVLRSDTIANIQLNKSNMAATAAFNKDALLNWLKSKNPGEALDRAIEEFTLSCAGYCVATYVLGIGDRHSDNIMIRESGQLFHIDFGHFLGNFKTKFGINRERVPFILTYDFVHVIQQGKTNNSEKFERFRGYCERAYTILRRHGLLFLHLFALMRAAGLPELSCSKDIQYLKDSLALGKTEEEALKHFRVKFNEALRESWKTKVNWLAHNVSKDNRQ

Row | Structure (SMILES) | Activity [1] [%] | Activity [2] [%] | Activity [3] [%] | Activity [4] [%] | Activity [5] [%] | Activity [6] [%] | Activity [7] [%] | Activity [8] [%] | Activity [9] [%] | Activity [10] [%] | Activity [11] [%] | Activity [12] [%] | pIC50 [13]
1 | CCc1cc(-c2c[nH]c3ncc(-c4cnn(C5CCNCC5)c4)cc23)nc(N)n1 | -58 | -22 | -86 | -95 | 200 | -49 | -97 | -47 | -95 | -67 | -54 | -77 | –
2 | CCCCc1cc(-c2c[nH]c3ncccc23)nc(N)n1 | 2 | -37 | -63 | -5 | 6 | -3 | – | 1 | -54 | -26 | -6 | -21 | < 5.00
3 | CCCCc1cc(-c2c[nH]c3ncc(-c4cnn(C5CCNCC5)c4)cc23)nc(N)n1 | -89 | -34 | -94 | -99 | -38 | -60 | -97 | -60 | -97 | -72 | -69 | -82 | 5.40
4 | Nc1nccc(-c2c[nH]c3ncccc23)n1 [MERIOLIN 1] | -4 | -27 | -73 | -9 | -30 | -6 | -44 | -22 | -77 | -74 | -11 | -67 | < 5.00

— ChEMBL document CHEMBL3813616, “Discovery of novel 7-azaindoles as PDK1 inhibitors” (Bioorg Med Chem Lett, 2016)
